From patent publication US11191765B2, “Heterocyclic compounds for the inhibition of PASK” (BioEnergenix LLC, priority 2012, dated 2021) come the findings set out here.

Some results are limits rather than exact numbers.

The target in one experiment is PASK (UniProt #Q96RG2; human recombinant N-terminal GST tagged construct, residues 879-1323) (Homo sapiens (Human), UniProt Q96RG2). Description: PASK ATP Radiochemical Assay. The format is biochemical. Particulars: radiochemical 33P-ATP assay, Myelin Basic Protein substrate, 120 min at room temperature; read-out: IC50 Kinase Domain. The procedure:
Biochemical Assay for hPASK Activity
PASK ATP Radiochemical Assay
Purified PASK (UniProt #Q96RG2; human recombinant N-terminal GST tagged construct, residues 879-1323) from insect cells (final concentration 5 nM) is added to freshly prepared Base Reaction Buffer containing 20 mM HEPES (pH 7.5), 10 mM MgCl2, 1 mM EGTA, 0.02% Brij35, 0.02 mg/ml BSA, 0.1 mM Na3VO4, 2 mM DTT, 1% DMSO and Myelin Basic Protein (20 μM final). Test compounds in DMSO are then added and the mixture, followed by delivery of ^33P-ATP (specific activity 0.01 μCi/μl final) to initiate the reaction. The kinase reaction is incubated for 120 min at room temperature. The entire reaction mixture is washed through onto a P81 Phosphocellulose paper and washed three times for 10 minutes in 75 mM phosphoric acid and once in methanol prior to drying and scintillation counting.

For a further experiment, the target named is PASK (Invitrogen) (Homo sapiens (Human), UniProt Q96RG2). Kind of experiment: PAS Kinase FRET Assay. The format is biochemical. Particulars: TR-FRET (665 nm/615 nm), Ulight-peptide substrate, 2 hours at 25° C.; read-out: IC50 Kinase Domain. The source says: The aim of the FRET assay is to determine the inhibition potential of test compounds on targeted kinase. This assay platform provides a homogenous screening method for measuring kinase activity by quantitating the amount of phospho-substrate in solution following a kinase reaction.
In the presence of kinase and ATP, the Ulight-peptide is phosphorylated and captured by an anti-phospho-substrate antibody, which brings the Eu chelate donor and Ulight acceptor dyes into close proximity. Upon excitation at 340 nm, the Eu chelate transfers its energy to the Ulight dye, resulting in a fluorescent light emission at 665 nm.
Titration of kinase at 1 mM ATP was achieved via the following protocol. After making serial three-fold dilutions of PASK (Invitrogen) in reaction buffer across the plate; 5 μl of kinase dilution and 5 μl substrate/ATP mix were added to the wells of the white Optiplate-384 (PerkinElmer). The contents of the plate were and incubated at RT for 1 h. The reaction was stopped by adding 5 μl of stop solution to each test well followed by mixing and incubation at RT for 10 minutes. 5 μl of detection mix (detection antibody diluted in detection buffer) was added; the contents of the plate were mixed and then incubated in the dark for 1 hour at RT. The signal was recorded at TR-FRET mode (665 nm/615 nm). The results were graphed to calculate the EC50.
Titration of ATP at the EC50 concentration of kinase to determine ATP Km,app. was performed using the following method. After making serial dilutions of ATP (Invitrogen), 5 μl of ATP dilution and 5 μl substrate/kinase mix were added to the wells of the white Optiplate-384 (PerkinElmer). The contents of the plate were and incubated at RT for 1 h. The reaction was stopped by adding 5 μl of stop solution to each test well followed by mixing and incubation at RT for 10 minutes. 5 μl of detection mix (detection antibody diluted in detection buffer) was added; the contents of the plate were mixed and then incubated in the dark for 1 hour at RT. The signal was recorded at TR-FRET mode (665 nm/615 nm). The results were graphed to calculate the EC50 as the ATP Km,app.
Compound screening was done via the following method. 10 mM stock solution of test compound in DMSO was prepared by dissolving test compound in DMSO at RT for 1 hour, and then sonicating at 100% output for 8 minutes. If compound is not soluble under this condition, it was diluted to 3 mM. Kinase reaction buffer was prepared containing 10 mM MgCl2, 50 mM HEPES, 1 mM EGTA, 0.01% TWEEN-20, 2 mM DTT. Serial dilutions of the test compounds were prepared at 4×final assay concentrations using Freedom EVO200® dispensing system as follows: 12×10^−5 M, 4×10^−5 M, 1.33×10^−5 M, 4.44×10^−6 M, 1.48×10^−6 M, 4.92×10^−7 M, 1.65×10^−7 M, 5.48×10^−7 M, 1.82×10^−8 M, 6.09×10^−9, 2.03×10^−9 M. Test compounds (2.5 μl at 4×the final assay concentration) was added to wells using Freedom EVO200® dispensing system. As a positive control, 2.5 μl of positive compound was added to assay wells, and 2.5 μl of DMSO to assay wells as vehicle control. Kinase solution was prepared in reaction buffer at 2×final assay concentration. Kinase solution (5 μl) was added to each well of the assay plate. The substrate and ATP solution was prepared in kinase reaction buffer at 4×final assay concentration. The kinase reaction was started by adding 2.5 μl of substrate+ATP mix solution to each well of the assay plate. The plate is mixed on a plate shaker; then covered and allowed to react for 2 hours in the dark at 25° C. without shaking. The reaction was stopped by adding 5 μl of stop solution to each test well followed by mixing and incubation at RT for 10 minutes in the dark. 5 μl of detection mix (detection antibody diluted in detection buffer) was added; the contents of the plate were mixed and then incubated in the dark for 1 hour at RT. The signal was recorded at TR-FRET mode (665 nm/615 nm).

Chain of PASK (Invitrogen) (Q96RG2 999-1251): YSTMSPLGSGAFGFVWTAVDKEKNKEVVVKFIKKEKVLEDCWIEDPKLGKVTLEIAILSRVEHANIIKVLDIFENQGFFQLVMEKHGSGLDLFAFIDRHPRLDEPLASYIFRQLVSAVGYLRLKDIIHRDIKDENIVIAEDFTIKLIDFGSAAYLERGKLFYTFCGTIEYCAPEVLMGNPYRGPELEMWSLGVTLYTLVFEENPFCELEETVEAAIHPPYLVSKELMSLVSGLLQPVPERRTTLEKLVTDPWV
Chain of PASK (Q96RG2 879-1323, change not shown): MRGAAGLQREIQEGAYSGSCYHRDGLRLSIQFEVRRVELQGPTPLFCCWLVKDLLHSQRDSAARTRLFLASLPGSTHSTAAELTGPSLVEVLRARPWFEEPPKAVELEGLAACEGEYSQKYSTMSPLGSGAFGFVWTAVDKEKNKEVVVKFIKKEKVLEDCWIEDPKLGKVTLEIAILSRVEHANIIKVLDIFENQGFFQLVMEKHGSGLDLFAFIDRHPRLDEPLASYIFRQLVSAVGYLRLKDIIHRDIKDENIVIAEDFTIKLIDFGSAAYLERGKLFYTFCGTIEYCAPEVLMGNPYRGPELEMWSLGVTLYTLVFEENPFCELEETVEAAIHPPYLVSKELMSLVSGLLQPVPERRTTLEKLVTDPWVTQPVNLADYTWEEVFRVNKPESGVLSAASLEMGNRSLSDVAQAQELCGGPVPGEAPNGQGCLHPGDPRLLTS

Consider `COc1cc(-c2cc(=O)n3nc(-c4ccc(Cl)cc4)nc3[nH]2)ccc1Cl` [Example 8, 5-(4-Chloro-3-methoxyphenyl)-2-(4-chlorophenyl)-[1,2,4]triazolo[1,5-a]pyrimidin-7(4H)-one], for which the IC50 on PASK and at PASK (Invitrogen) was at most 10 µM in each case.

Take `O=c1cc(-c2ccccc2)[nH]c2nc(-c3ccccc3Cl)nn12` [Example 36, 2-(2-Chlorophenyl)-5-phenyl-[1,2,4]triazolo[1,5-a]pyrimidin-7(4H)-one]: the IC50 (as a rule, the midpoint of a concentration-inhibition curve) on PASK was at most 10 µM.

Turning to `COc1ccc(-c2nc3[nH]c(-c4ccccc4)cc(=O)n3n2)cc1` [Example 35, 2-(4-Methoxyphenyl)-5-phenyl-[1,2,4]triazolo[1,5-a]pyrimidin-7(4H)-one], the IC50 at PASK is at most 10 µM.

In the case of `O=c1cc(-c2ccc3c(c2)OCO3)[nH]c2nc(-c3ccc(Cl)cc3)nn12` [Example 15, 5-(Benzo[d][1,3]dioxol-5-yl)-2-(4-chlorophenyl)-[1,2,4]triazolo[1,5-a]pyrimidin-7(4H)-one], the IC50 at PASK and on PASK (Invitrogen) was at most 10 µM each time.

On to `COc1ccc(-c2cc(=O)n3nc(-c4ccccc4)nc3[nH]2)cc1` [Example 32, 5-(4-Methoxyphenyl)-2-phenyl-[1,2,4]triazolo[1,5-a]pyrimidin-7(4H)-one], for which the IC50 on PASK is at most 10 µM.

For `COc1ccc(-c2cc(=O)n3nc(-c4ccc(Cl)cc4)nc3[nH]2)cc1` [Example 34, 2-(4-Chlorophenyl)-5-(4-methoxyphenyl)-[1,2,4]triazolo[1,5-a]pyrimidin-7(4H)-one], the IC50 at PASK and on PASK (Invitrogen) was at most 10 µM throughout.

For `O=c1cc(-c2ccc3[nH]nnc3c2)[nH]c2nc(-c3ccccn3)nn12` [Example 2, 5-(1H-Benzo[d][1,2,3]triazol-5-yl)-2-(pyridin-2-yl)-[1,2,4]triazolo[1,5-a]pyrimidin-7(4H)-one], the IC50 on PASK (Invitrogen) was at most 10 µM.

Regarding `O=c1cc(-c2ccc3[nH]nnc3c2)[nH]c2nc(-c3ccc(F)cc3)nn12` [Example 40, 5-(1H-Benzo[d][1,2,3]triazol-5-yl)-2-(4-fluorophenyl)-[1,2,4]triazolo[1,5-a]pyrimidin-7(4H)-one], the IC50 on PASK (Invitrogen) is at most 10 µM.

As for `CNC(=O)c1nc2[nH]c(-c3ccc4[nH]nnc4c3)cc(=O)n2n1` [Example 7, 5-(1H-Benzo[d][1,2,3]triazol-5-yl)-N-methyl-7-oxo-4,7-dihydro-[1,2,4]triazolo[1,5-a]pyrimidine-2-carboxamide], the half-inhibitory concentration (IC50) on PASK (Invitrogen) is at most 10 µM.

`COc1ccc(-c2cc(=O)n3ncnc3[nH]2)cc1` [Example 38, 5-(4-Methoxyphenyl)-[1,2,4]triazolo[1,5-a]pyrimidin-7(4H)-one]: the IC50 at PASK is at most 10 µM.

For `COc1ccccc1-c1cc(=O)n2nc(-c3ccccc3)nc2[nH]1` [Example 30, 5-(2-Methoxyphenyl)-2-phenyl-[1,2,4]triazolo[1,5-a]pyrimidin-7(4H)-one], the IC50 on PASK was at most 10 µM.

Turning to `COc1cccc(-c2cc(=O)n3nc(-c4ccccc4)nc3[nH]2)c1` [Example 33, 5-(3-Methoxyphenyl)-2-phenyl-[1,2,4]triazolo[1,5-a]pyrimidin-7(4H)-one], at PASK, the IC50 was at most 10 µM.

As for `O=c1cc(-c2ccccc2)[nH]c2nc(-c3ccccc3)nn12` [Example 31, 2,5-Diphenyl-[1,2,4]triazolo[1,5-a]pyrimidin-7(4H)-one], the half-inhibitory concentration (IC50) on PASK was at most 10 µM.

Consider `COc1ccc(-c2cc(=O)n3ncnc3[nH]2)cc1OC` [Example 37, 5-(3,4-Dimethoxyphenyl)-[1,2,4]triazolo[1,5-a]pyrimidin-7(4H)-one], for which the concentration for half-maximal inhibition (IC50) at PASK is at most 10 µM.
